Laboratory results: patent US6809065B2, “Herbicide containing substituted pyrazole derivative as active ingredient” (SDS Biotech K.K., priority 2001, dated 2004)

What was measured:
Chenopodium album [1] = experiment: Upland field foliage treatment (Test Example 1); assay type: in vivo; conditions: foliage treatment 14th day after sowing, wettable powder, 1 kg active ingredient per hectare, evaluated 21st day after application
Description: (§1) In the above evaluation criteria, the term “herbicidal effect” means evaluation to the objective weeds, and a higher index of the evaluation criteria means higher herbicidal effect on the objective weeds. On the other hand, a lower index of the evaluation criteria for the crops means higher safety to the crops. A plastic pot of 130 cm^2 was filled with upland soil. Then, seeds of weeds, namely, Setaria viridis, Digitaria adscendens, Chenopodium album and Stellaria media, and seeds of crops, namely, soybean (Glycine max) and wheat (Triticum aestivum), were sowed and covered with soil of about 1 cm thick. On the 14th day after the sowing, a wettable powder composition was prepared in accordance with Formulation Example 1, diluted with water in such an amount that the amount of the active ingredient became 1 kg per hectare, and then uniformly applied to the plant leaf surfaces. On the 21st day after the application, observation and evaluation were carried out according to the aforesaid criteria.

Digitaria adscendens [2] = experiment: Upland field foliage treatment (Test Example 1); assay type: in vivo; conditions: foliage treatment 14th day after sowing, wettable powder, 1 kg active ingredient per hectare, evaluated 21st day after application
Description: as §1

Setaria viridis [3] = experiment: Upland field foliage treatment (Test Example 1); assay type: in vivo; conditions: foliage treatment 14th day after sowing, wettable powder, 1 kg active ingredient per hectare, evaluated 21st day after application
Description: as §1

Stellaria media [4] = experiment: Upland field foliage treatment (Test Example 1); assay type: in vivo; conditions: foliage treatment 14th day after sowing, wettable powder, 1 kg active ingredient per hectare, evaluated 21st day after application
Description: as §1

soybean (Glycine max) [5] = experiment: Upland field foliage treatment (Test Example 1), crop; assay type: in vivo; conditions: foliage treatment 14th day after sowing, 1 kg active ingredient per hectare, evaluated 21st day, lower index = higher safety
Description: as §1

[6] = system: wheat (Triticum aestivum); experiment: as above; assay type: in vivo; conditions: foliage treatment 14th day after sowing, 1 kg active ingredient per hectare, evaluated 21st day, lower index = higher safety
Description: as §1

Chenopodium album [7] = experiment: Upland soil treatment (Test Example 2); assay type: in vivo; conditions: soil surface treatment next day after sowing, wettable powder, 1 kg active ingredient per hectare, evaluated 21st day after application
Description: (§2) In the above evaluation criteria, the term “herbicidal effect” means evaluation to the objective weeds, and a higher index of the evaluation criteria means higher herbicidal effect on the objective weeds. On the other hand, a lower index of the evaluation criteria for the crops means higher safety to the crops. A plastic pot of 130 cm^2 was filled with upland soil. Then, seeds of weeds, namely, Setaria viridis, Digitaria adscendens, Chenopodium album and Stellaria media, and seeds of crops, namely, soybean (Glycine max) and wheat (Triticum aestivum), were sowed and covered with soil of about 1 cm thick. On the next day after the sowing, a wettable powder composition was prepared in accordance with Formulation Example 1, diluted with water in such an amount that the amount of the active ingredient became 1 kg per hectare, and then uniformly applied to the soil surface. On the 21st day after the application, observation and evaluation were carried out according to the aforesaid criteria.

Digitaria adscendens [8] = experiment: Upland soil treatment (Test Example 2); assay type: in vivo; conditions: soil surface treatment next day after sowing, wettable powder, 1 kg active ingredient per hectare, evaluated 21st day after application
Description: as §2

Setaria viridis [9] = experiment: Upland soil treatment (Test Example 2); assay type: in vivo; conditions: soil surface treatment next day after sowing, wettable powder, 1 kg active ingredient per hectare, evaluated 21st day after application
Description: as §2

Stellaria media [10] = experiment: Upland soil treatment (Test Example 2); assay type: in vivo; conditions: soil surface treatment next day after sowing, wettable powder, 1 kg active ingredient per hectare, evaluated 21st day after application
Description: as §2

soybean (Glycine max) [11] = experiment: Upland soil treatment (Test Example 2), crop; assay type: in vivo; conditions: soil surface treatment next day after sowing, 1 kg active ingredient per hectare, evaluated 21st day, lower index = higher safety
Description: as §2

[12] = system: wheat (Triticum aestivum); experiment: Upland soil treatment (Test Example 2), crop; assay type: in vivo; conditions: soil surface treatment next day after sowing, 1 kg active ingredient per hectare, evaluated 21st day, lower index = higher safety
Description: as §2

Echinochloa spp. = experiment: Paddy field treatment (Test Example 3); assay type: in vivo, Echinochloa crusgalli; conditions: paddy pot, submerged 4 cm, dropped on water surface 10th day after transplantation, 1 kg active ingredient per hectare, evaluated 21st day
Method: (§3) In the above evaluation criteria, the term “herbicidal effect” means evaluation to the objective weeds, and a higher index of the evaluation criteria means higher herbicidal effect on the objective weeds. On the other hand, a lower index of the evaluation criteria for the crops means higher safety to the crops. A plastic pot of 130 cm^2 was filled with paddy soil, and soil puddling was carried out to adjust the submerged depth to 4 cm. Then, seeds of Echinochloa crusgalli, Monochoria vaginalis, Ammannia multiflora and Scirpus juncoides were sowed, and rice (Oryza […], variety: Koshihikari) of two-leaf period was transplanted by 2 rice plants of 1 stub per pot at a depth of 3 cm. On the 10th day after the transplantation, a wettable powder composition was prepared in accordance with Formulation Example 1, diluted with water in such an amount that the amount of the active ingredient became 1 kg per hectare, and then dropped to diffuse on the water surface. On the 21st day after the dropping, observation and evaluation were carried out according to the aforesaid criteria.

Ammannia multiflora = experiment: Paddy field treatment (Test Example 3); assay type: in vivo; conditions: paddy pot, submerged 4 cm, dropped on water surface 10th day after transplantation, 1 kg active ingredient per hectare, evaluated 21st day
Method: as §3

Monochoria vaginalis = experiment: Paddy field treatment (Test Example 3); assay type: in vivo; conditions: paddy pot, submerged 4 cm, dropped on water surface 10th day after transplantation, 1 kg active ingredient per hectare, evaluated 21st day
Method: as §3

Scirpus juncoides = experiment: Paddy field treatment (Test Example 3); assay type: in vivo; conditions: paddy pot, submerged 4 cm, dropped on water surface 10th day after transplantation, 1 kg active ingredient per hectare, evaluated 21st day
Method: as §3

[13] = system: rice (Oryza sative, variety: Koshihikari); experiment: Paddy field treatment (Test Example 3), crop; assay type: in vivo, Oryza sativa; conditions: transplanted rice two-leaf period, water surface treatment 10th day after transplantation, 1 kg active ingredient per hectare, evaluated 21st day, lower index = higher safety
Method: as §3

## COC=C(Cn1nc(-c2c(Cl)cccc2Cl)cc1C)C(=O)OC [Compound 9]
Chenopodium album [1]
  Herbicidal activity Chenopodium album: 4 (herbicidal effect of not less than 70% by weight and less than 90% by weight)
Digitaria adscendens [2]
  Herbicidal activity Digitaria adscendens: 4 (herbicidal effect of not less than 70% by weight and less than 90% by weight)
Setaria viridis [3]
  Herbicidal activity Setaria viridis: 4 (herbicidal effect of not less than 70% by weight and less than 90% by weight)
Stellaria media [4]
  Herbicidal activity Stellaria media: 4 (herbicidal effect of not less than 70% by weight and less than 90% by weight)
Soybean (Glycine max) [5]
  Herbicidal activity Glycine max: 0 (herbicidal effect of not less than 0% by weight and less than 10% by weight)
[6]
  Herbicidal activity Triticum aestivum: 0 (herbicidal effect of not less than 0% by weight and less than 10% by weight)
Chenopodium album [7]
  Herbicidal activity Chenopodium album: 5 (herbicidal effect of not less than 90% by weight)
Digitaria adscendens [8]
  Herbicidal activity Digitaria adscendens: 4 (herbicidal effect of not less than 70% by weight and less than 90% by weight)
Setaria viridis [9]
  Herbicidal activity Setaria viridis: 4 (herbicidal effect of not less than 70% by weight and less than 90% by weight)
Stellaria media [10]
  Herbicidal activity Stellaria media: 4 (herbicidal effect of not less than 70% by weight and less than 90% by weight)
Soybean (Glycine max) [11]
  Herbicidal activity Glycine max: 0 (herbicidal effect of not less than 0% by weight and less than 10% by weight)
[12]
  Herbicidal activity Triticum aestivum: 0 (herbicidal effect of not less than 0% by weight and less than 10% by weight)
Echinochloa spp.
  Herbicidal activity Echinochloa spp.: 3 (herbicidal effect of not less than 50% by weight and less than 70% by weight)
Ammannia multiflora
  Herbicidal activity Ammannia multiflora: 3 (herbicidal effect of not less than 50% by weight and less than 70% by weight)
Monochoria vaginalis
  Herbicidal activity Monochoria vaginalis: 3 (herbicidal effect of not less than 50% by weight and less than 70% by weight)
Scirpus juncoides
  Herbicidal activity Scirpus juncoides: 3 (herbicidal effect of not less than 50% by weight and less than 70% by weight)
[13]
  Herbicidal activity Oryza sativa: 0 (herbicidal effect of not less than 0% by weight and less than 10% by weight)

## COC=C(Cn1nc(-c2ccc(Cl)c(Cl)c2)cc1C)C(=O)OC [Compound 10]
Chenopodium album [1]
  Herbicidal activity Chenopodium album: 4 (herbicidal effect of not less than 70% by weight and less than 90% by weight)
Digitaria adscendens [2]
  Herbicidal activity Digitaria adscendens: 4 (herbicidal effect of not less than 70% by weight and less than 90% by weight)
Setaria viridis [3]
  Herbicidal activity Setaria viridis: 4 (herbicidal effect of not less than 70% by weight and less than 90% by weight)
Stellaria media [4]
  Herbicidal activity Stellaria media: 4 (herbicidal effect of not less than 70% by weight and less than 90% by weight)
Soybean (Glycine max) [5]
  Herbicidal activity Glycine max: 0 (herbicidal effect of not less than 0% by weight and less than 10% by weight)
[6]
  Herbicidal activity Triticum aestivum: 0 (herbicidal effect of not less than 0% by weight and less than 10% by weight)
Chenopodium album [7]
  Herbicidal activity Chenopodium album: 4 (herbicidal effect of not less than 70% by weight and less than 90% by weight)
Digitaria adscendens [8]
  Herbicidal activity Digitaria adscendens: 5 (herbicidal effect of not less than 90% by weight)
Setaria viridis [9]
  Herbicidal activity Setaria viridis: 4 (herbicidal effect of not less than 70% by weight and less than 90% by weight)
Stellaria media [10]
  Herbicidal activity Stellaria media: 4 (herbicidal effect of not less than 70% by weight and less than 90% by weight)
Soybean (Glycine max) [11]
  Herbicidal activity Glycine max: 0 (herbicidal effect of not less than 0% by weight and less than 10% by weight)
[12]
  Herbicidal activity Triticum aestivum: 0 (herbicidal effect of not less than 0% by weight and less than 10% by weight)
Echinochloa spp.
  Herbicidal activity Echinochloa spp.: 3 (herbicidal effect of not less than 50% by weight and less than 70% by weight)
Ammannia multiflora
  Herbicidal activity Ammannia multiflora: 3 (herbicidal effect of not less than 50% by weight and less than 70% by weight)
Monochoria vaginalis
  Herbicidal activity Monochoria vaginalis: 3 (herbicidal effect of not less than 50% by weight and less than 70% by weight)
Scirpus juncoides
  Herbicidal activity Scirpus juncoides: 3 (herbicidal effect of not less than 50% by weight and less than 70% by weight)
[13]
  Herbicidal activity Oryza sativa: 0 (herbicidal effect of not less than 0% by weight and less than 10% by weight)

## COC=C(Cn1nc(-c2cc(Cl)cc(Cl)c2)cc1C)C(=O)OC [Compound 11]
Chenopodium album [1]
  Herbicidal activity Chenopodium album: 4 (herbicidal effect of not less than 70% by weight and less than 90% by weight)
Digitaria adscendens [2]
  Herbicidal activity Digitaria adscendens: 4 (herbicidal effect of not less than 70% by weight and less than 90% by weight)
Setaria viridis [3]
  Herbicidal activity Setaria viridis: 4 (herbicidal effect of not less than 70% by weight and less than 90% by weight)
Stellaria media [4]
  Herbicidal activity Stellaria media: 4 (herbicidal effect of not less than 70% by weight and less than 90% by weight)
Soybean (Glycine max) [5]
  Herbicidal activity Glycine max: 0 (herbicidal effect of not less than 0% by weight and less than 10% by weight)
[6]
  Herbicidal activity Triticum aestivum: 0 (herbicidal effect of not less than 0% by weight and less than 10% by weight)
Chenopodium album [7]
  Herbicidal activity Chenopodium album: 4 (herbicidal effect of not less than 70% by weight and less than 90% by weight)
Digitaria adscendens [8]
  Herbicidal activity Digitaria adscendens: 4 (herbicidal effect of not less than 70% by weight and less than 90% by weight)
Setaria viridis [9]
  Herbicidal activity Setaria viridis: 4 (herbicidal effect of not less than 70% by weight and less than 90% by weight)
Stellaria media [10]
  Herbicidal activity Stellaria media: 4 (herbicidal effect of not less than 70% by weight and less than 90% by weight)
Soybean (Glycine max) [11]
  Herbicidal activity Glycine max: 0 (herbicidal effect of not less than 0% by weight and less than 10% by weight)
[12]
  Herbicidal activity Triticum aestivum: 0 (herbicidal effect of not less than 0% by weight and less than 10% by weight)
Echinochloa spp.
  Herbicidal activity Echinochloa spp.: 3 (herbicidal effect of not less than 50% by weight and less than 70% by weight)
Ammannia multiflora
  Herbicidal activity Ammannia multiflora: 3 (herbicidal effect of not less than 50% by weight and less than 70% by weight)
Monochoria vaginalis
  Herbicidal activity Monochoria vaginalis: 3 (herbicidal effect of not less than 50% by weight and less than 70% by weight)
Scirpus juncoides
  Herbicidal activity Scirpus juncoides: 3 (herbicidal effect of not less than 50% by weight and less than 70% by weight)
[13]
  Herbicidal activity Oryza sativa: 0 (herbicidal effect of not less than 0% by weight and less than 10% by weight)

## COC=C(Cn1nc(-c2ccccc2)c(Cl)c1C)C(=O)OC [Compound 12]
Chenopodium album [1]
  Herbicidal activity Chenopodium album: 5 (herbicidal effect of not less than 90% by weight)
Digitaria adscendens [2]
  Herbicidal activity Digitaria adscendens: 5 (herbicidal effect of not less than 90% by weight)
Setaria viridis [3]
  Herbicidal activity Setaria viridis: 4 (herbicidal effect of not less than 70% by weight and less than 90% by weight)
Stellaria media [4]
  Herbicidal activity Stellaria media: 5 (herbicidal effect of not less than 90% by weight)
Soybean (Glycine max) [5]
  Herbicidal activity Glycine max: 1 (herbicidal effect of not less than 10% by weight and less than 30% by weight)
[6]
  Herbicidal activity Triticum aestivum: 0 (herbicidal effect of not less than 0% by weight and less than 10% by weight)
Chenopodium album [7]
  Herbicidal activity Chenopodium album: 5 (herbicidal effect of not less than 90% by weight)
Digitaria adscendens [8]
  Herbicidal activity Digitaria adscendens: 5 (herbicidal effect of not less than 90% by weight)
Setaria viridis [9]
  Herbicidal activity Setaria viridis: 4 (herbicidal effect of not less than 70% by weight and less than 90% by weight)
Stellaria media [10]
  Herbicidal activity Stellaria media: 4 (herbicidal effect of not less than 70% by weight and less than 90% by weight)
Soybean (Glycine max) [11]
  Herbicidal activity Glycine max: 0 (herbicidal effect of not less than 0% by weight and less than 10% by weight)
[12]
  Herbicidal activity Triticum aestivum: 0 (herbicidal effect of not less than 0% by weight and less than 10% by weight)
Echinochloa spp.
  Herbicidal activity Echinochloa spp.: 4 (herbicidal effect of not less than 70% by weight and less than 90% by weight)
Ammannia multiflora
  Herbicidal activity Ammannia multiflora: 5 (herbicidal effect of not less than 90% by weight)
Monochoria vaginalis
  Herbicidal activity Monochoria vaginalis: 5 (herbicidal effect of not less than 90% by weight)
Scirpus juncoides
  Herbicidal activity Scirpus juncoides: 4 (herbicidal effect of not less than 70% by weight and less than 90% by weight)
[13]
  Herbicidal activity Oryza sativa: 0 (herbicidal effect of not less than 0% by weight and less than 10% by weight)
